As a reminder, the IC50 is the point on the concentration scale where inhibition reaches its midpoint.

Molecules are shown by their SMILES. Read-outs that look alike come from different tables or passages of the source. Starred links: 1 amine or outer side, 2 acyl side, 3 side chain; linkers in the order of their positions; H or OH if unused. Positions of bridges follow the written chain, without caps; N, C: chain ends. Non-standard residues stand in square brackets, D forms with d. Residues, ends and D or L forms follow the SMILES beside them. ξ: configuration not given here. Biphenyl(4,4'-CH2)2 = c1cc(-c2ccc(C[*:2])cc2)ccc1C[*:1]; ξαMeNle(6-ylidene) = CC(CCCC=[*:3])(N[*:1])C(=O)[*:2]; X1 = CC(CCCCCCC=[*:3])(N[*:1])C(=O)[*:2]; Octanediyl(1,8) = C(CCCC[*:2])CCC[*:1]; ξC = NC(CS)C(=O)O

This is an account of results in patent publication US20200261534A1, “NEW TREATMENTS OF MULTIPLE MYELOMA” (priority 2017, published 2020).

Common to all, as to assay type: cell-based
For assay [1], the system named is MM.1S, B Lymphoblast (multiple myeloma). Briefly: MTT viability assay, MM.1S. The protocol:
MM.1S, B Lymphoblast (multiple myeloma), ATCC: CRL-2974
(§1) Cell lines A549, MCF-7 and RAMOS were cultured in incubator under CO2 (6%) at 37° C. in DMEM high glucose (Dulbecco's Modified Eagle Solution, Gibco-BRL 31966-21) medium with 10% fetal bovine serum inactivated (FBS) (Gibco-BRL 10106-169). Cell lines HL-60 and MM.1S were cultured in incubator at 37° C. in RPMI-1640 (Sigma R8758) medium with 10% of fetal bovine serum inactivated (FBS) and 2 mM glutamine (Sigma G7513). Cell lines BJ were cultured in incubator under CO2 (6%) at 37° C. in Eagle's Minimum Essential Medium (Sigma, M-2279) with 10% fetal bovine serum inactivated (FBS) (Gibco-BRL 10106-169).
During the amplification step and the assays adherent cells were rinsed with DPBS (Dulbecco's Phosphate Buffered Saline, Sigma D1283) three times and afterward treated for 5 minutes with trypsin ([…]) (Gibco-BRL, 15400054) in solution of DPBS at 37° C., and, once detached, transferred in the culturing medium. No-adherent cells were centrifuged and transferred in the culturing medium. Cells were counted in a Neubauer chamber after labelling with Tripan-Blue.
Cells were seeded at a density of 10000 cells/well in 100 μl of medium in 96 well plates. After 24 h, the compounds to be tested were added to calculate the dose/response curve at the starting concentration of 100 μM with serial dilutions (1:1). Controls are the untreated cells. Each experiment was performed in triplicate.
(§2) Cells were incubated with the compounds at the indicated concentrations during 24-72 h in incubator under CO2 atmosphere at 37° C. Then, cell viability was measured by means of MTT (3-(4,5-dimethylthiazol-2-yl)-2,5-diphenyltetrazolium bromide) assay. Stock solution of MTT (475989 Calbiochem) was 5 mg/ml in PBS. 1×.10 μl/well of MTT solution were added and the plate was incubated for 3-4 hr. The medium was discarded and 100 μl of extracting buffer (PBS 1×, 15% SDS, 50% […] N,N-Dimethylformamide, pH 4.7) were added to each well. Plates were incubated for 16 h at room temperature under orbital shaking. Absorbance at 570 nm was finally measured. As negative control (experiment noise) 3 wells were treated with 20 μl/well of a solution of SDS 10% in H2O.
Data analysis was performed calculating the percentage of cell viability normalized vs. the values of negative control, which was considered equal to 100%. The dose/response curve was fitted through the sigmoidal equation dose-response (variable slope) and the IC50 values were calculated as follow:
Y=Bottom+(Top−Bottom)/(1+10^{[(LogIC50−X)*HillSlope]},
All cell lines were cultured in incubator at 37° C. in RPMI-1640 (Sigma R8758) medium with 10% of fetal bovine serum inactivated (FBS) and 2 mM glutamine (Sigma G7513). During the amplification step cells were centrifuged and transferred into the culturing medium. Cells were counted in a Neubauer chamber after labelling with Tripan-Blue.
as §2, with “peptidomimetic compound (S09)” for “compounds”
Cell lines A549 and MBA-MD231 were cultured in incubator under CO2 (6%) at 37° C. in DMEM high glucose (Dulbecco's Modified Eagle Solution, Gibco-BRL 31966-21) medium with 10% fetal bovine serum inactivated (FBS) (Gibco-BRL 10106-169). […]
Background: Tetrazolium assays rely on reduction of a dye to a coloured formazan, in cell work by metabolically active cells.

The subject of assay [2] is A549, epithelial (lung cancer). As to the kind of experiment: MTT viability assay, A549. The protocol: A549, epithelial (lung cancer), ATCC: CCL-185
as §1
During the amplification step and the assays adherent cells were rinsed with DPBS (Dulbecco's Phosphate Buffered Saline, Sigma D1283) three times and afterward treated for 5 minutes with trypsin ([…]) (Gibco-BRL, 15400054) in solution of DPBS at 37° C., and, once detached, transferred in the culturing medium. No-adherent cells were centrifuged and transferred in the culturing medium. Cells were counted in a Neubauer chamber after labelling with Tripan-Blue. […]
as §2
Data analysis was performed calculating the percentage of cell viability normalized vs. the values of negative control, which was considered equal to 100%. The dose/response curve was fitted through the sigmoidal equation dose-response (variable slope) and the IC50 values were calculated as follow: […]

In assay [3] the test system is RAMOS, B lymphocyte (Burkitt's Lymphoma). Briefly: MTT viability assay, RAMOS. The protocol:
RAMOS, B lymphocyte (Burkitt's Lymphoma), ATCC: CRL-1596 […] During the amplification step and the assays adherent cells were rinsed with DPBS (Dulbecco's Phosphate Buffered Saline, Sigma D1283) three times and afterward treated for 5 minutes with trypsin ([…]) (Gibco-BRL, 15400054) in solution of DPBS at 37° C., and, once detached, transferred in the culturing medium. No-adherent cells were centrifuged and transferred in the culturing medium. Cells were counted in a Neubauer chamber after labelling with Tripan-Blue. […] Cells were seeded at a density of 10000 cells/well in 100 μl of medium in 96 well plates. […] Controls are the untreated cells. Each experiment was performed in triplicate. Cells were incubated with the compounds at the indicated concentrations during 24-72 h in incubator under CO2 atmosphere at 37° C. […] Stock solution of MTT (475989 Calbiochem) was 5 mg/ml in PBS. 1×.10 μl/well of MTT solution were added and the plate was incubated for 3-4 hr. […] Plates were incubated for 16 h at room temperature under orbital shaking. Absorbance at 570 nm was finally measured. […] The dose/response curve was fitted through the sigmoidal equation dose-response (variable slope) and the IC50 values were calculated as follow: Y=Bottom+(Top−Bottom)/(1+10^{[(LogIC50−X)*HillSlope]},

[4] abbreviates: MM.1S, same protocol as Example 2, Table 6, read-out: Compound (IC50).
The mark [5] stands for this setting: A549, same protocol as Example 2, Table 6, read-out: Compound (IC50).
Setting [6] is: Ramos, same protocol as Example 2, Table 6, read-out: Compound (IC50).

In the case of `CCc1ccc(/C=C2/SC(=S)NC2=O)cc1` [10058-F4, reference compound], the concentration for half-maximal inhibition (IC50) was greater than 100 µM in assay [1] (MM.1S, MTT, incubation 24-72 h, Table 3, read-out: IC50 values); greater than 100 µM in assay [2] (A549, MTT, incubation 24-72 h, Table 3, read-out: IC50 values); roughly 57 µM in assay [3] (Ramos, MTT, incubation 24-72 h, Table 3, read-out: IC50 values).

For `CC[C@H](C)[C@@H]1NC(=O)[C@H](Cc2ccc(O)cc2)NC(=O)[C@H](C)NC(=O)[C@H]([C@@H](C)O)NC(=O)[C@H](C)NC(=O)[C@H](CCCCN)NC(=O)C(C)(NC(=O)[C@H](CC(C)C)NC(=O)[C@@H](NC(=O)[C@@H](NC(=O)[C@@H](NC(=O)[C@H](CCCCN)NC(=O)[C@@H]2CCCN2C(=O)[C@H](C)N)C(C)C)C(C)C)[C@@H](C)CC)CCCCCCC=CCCCC(C)(C(=O)N[C@@H](CO)C(=O)O)NC1=O` (stereo partly shown) [IDP-S18, APKVVILXKATAYIXS] (H-APKVVIL[X1]KATAYI[ξαMeNle(6-ylidene)]S-OH; staple 8-15; N-terminus and C-terminus assumed), the IC50 in assay [1], in assay [2] and in assay [3] was greater than 100 µM each time.

As to `CC[C@H](C)[C@@H]1NC(=O)[C@H](Cc2ccc(O)cc2)NC(=O)[C@H](C)NC(=O)[C@H]([C@@H](C)O)NC(=O)[C@H](C)NC(=O)C(C)(NC(=O)[C@H](CCCCN)NC(=O)[C@H](CC(C)C)NC(=O)[C@@H](NC(=O)[C@@H](NC(=O)[C@@H](NC(=O)[C@H](CCCCN)NC(=O)[C@@H]2CCCN2C(=O)[C@H](C)N)C(C)C)C(C)C)[C@@H](C)CC)CCCCCCC=CCCCC(C)(C(=O)N[C@H](C(=O)O)C(C)C)NC(=O)[C@H](CC(C)C)NC1=O` (stereo partly shown) [IDP-S23, APKVVILKXATAYILXV] (H-APKVVILK[X1]ATAYIL[ξαMeNle(6-ylidene)]V-OH; staple 9-16), the IC50 in assay [1] (setting [4]), in assay [2] (setting [5]) and in assay [3] (setting [6]) was greater than 100 µM each time.

In the case of `CC[C@H](C)[C@H](NC(=O)[C@H](Cc1ccc(O)cc1)NC(=O)C1(C)CCCC=CCCCCCCC(C)(NC(=O)[C@@H](NC(=O)[C@H](CCCCN)NC(=O)[C@@H]2CCCN2C(=O)[C@H](C)N)C(C)C)C(=O)N[C@@H]([C@@H](C)CC)C(=O)N[C@@H](CC(C)C)C(=O)N[C@@H](CCCCN)C(=O)N[C@@H](CCCCN)C(=O)N[C@@H](C)C(=O)N[C@@H]([C@@H](C)O)C(=O)N1)C(=O)N[C@@H](CC(C)C)C(=O)N[C@@H](CO)C(=O)O` (stereo partly shown) [IDP-S21, APKVXILKKATXYILS] (H-APKV[X1]ILKKAT[ξαMeNle(6-ylidene)]YILS-OH; staple 5-12), the IC50 in assay [1] (setting [4]), in assay [2] (setting [5]) and in assay [3] (setting [6]) was greater than 100 µM in each case.

For `CC[C@H](C)[C@H](NC(=O)[C@H](Cc1ccc(O)cc1)NC(=O)[C@H](C)NC(=O)C1(C)CCCC=CCCCCCCC(C)(NC(=O)[C@H](CCCCN)NC(=O)[C@@H]2CCCN2C(=O)[C@H](C)N)C(=O)N[C@@H](C(C)C)C(=O)N[C@@H]([C@@H](C)CC)C(=O)N[C@@H](Cc2ccccc2)C(=O)N[C@@H](CCCCN)C(=O)N[C@@H](CCCCN)C(=O)N[C@@H](C)C(=O)N1)C(=O)N[C@@H](CC(C)C)C(=O)N[C@@H](CO)C(=O)O` (stereo partly shown) [S14, APKXVIFKKAXAYILS—OH] (H-APK[X1]VIFKKA[ξαMeNle(6-ylidene)]AYILS-OH; staple 4-11; N-terminus assumed), the IC50 in assay [1] was found to be 6.6 ± 0.9 µM; in assay [1] (24 h) it was 7 µM; in assay [1] (72 h), 7 µM; in assay [2] it was 9.1 ± 0.8 µM; in assay [3] it was 55 µM.

`CC[C@H](C)[C@H](NC(=O)[C@H](Cc1ccc(O)cc1)NC(=O)[C@H](C)NC(=O)[C@@H](NC(=O)[C@H](C)NC(=O)C1(C)CCCC=CCCCCCCC(C)(NC(=O)[C@H](C)N)C(=O)N[C@@H](CCCCN)C(=O)N[C@@H](C(C)C)C(=O)N[C@@H](C(C)C)C(=O)N[C@@H]([C@@H](C)CC)C(=O)N[C@@H](CC(C)C)C(=O)N[C@@H](CCCCN)C(=O)N1)[C@@H](C)O)C(=O)N[C@@H](CC(C)C)C(=O)N[C@@H](CO)C(=O)O` (stereo partly shown) [IDP-S19, AXKVVILKXATAYILS] (H-A[X1]KVVILK[ξαMeNle(6-ylidene)]ATAYILS-OH; staple 2-9): the IC50 in assay [1] (setting [4]), in assay [2] (setting [5]) and in assay [3] (setting [6]) was greater than 100 µM in each case.

In the case of `CC[C@H](C)[C@H](NC(=O)[C@H](Cc1ccc(O)cc1)NC(=O)[C@H](C)NC(=O)[C@@H]1CSCc2ccc(cc2)-c2ccc(cc2)CSC[C@H](NC(=O)[C@H](CCCCN)NC(=O)[C@@H]2CCCN2C(=O)[C@H](C)N)C(=O)N[C@@H](C(C)C)C(=O)N[C@@H]([C@@H](C)CC)C(=O)N[C@@H](CC(C)C)C(=O)N[C@@H](CCCCN)C(=O)N[C@@H](CCCCN)C(=O)N[C@@H](C)C(=O)N1)C(=O)N[C@@H](CC(C)C)C(=O)N[C@@H](CO)C(=O)O` [IDP-P1708161] (H-APKCVILKKACAYILS-OH; linker 4-11 via Biphenyl(4,4'-CH2)2; N-terminus and C-terminus assumed), the concentration for half-maximal inhibition (IC50) turned out to be 33 ± 15 µM in assay [1], 10 µM in assay [1] (24 h), 15 µM in assay [1] (72 h) and 42 ± 6 µM in assay [2].

`CC[C@H](C)[C@H](NC(=O)[C@H](Cc1ccc(O)cc1)NC(=O)[C@H](C)NC(=O)C1CSCCCCCCCCSCC(NC(=O)[C@H](CCCCN)NC(=O)[C@@H]2CCCN2C(=O)[C@H](C)N)C(=O)N[C@@H](C(C)C)C(=O)N[C@@H]([C@@H](C)CC)C(=O)N[C@@H](CC(C)C)C(=O)N[C@@H](CCCCN)C(=O)N[C@@H](CCCCN)C(=O)N[C@@H](C)C(=O)N1)C(=O)N[C@@H](CC(C)C)C(=O)N[C@@H](CO)C(=O)O` (stereo partly shown) [IDP-P1708160] (H-APK[ξC]VILKKA[ξC]AYILS-OH; linker 4-11 via Octanediyl(1,8); N-terminus and C-terminus assumed): the IC50 in assay [1] came to 48 µM; in assay [1] (24 h) it was 35 µM; in assay [1] (72 h) it was 5 µM; in assay [2], 65 ± 17 µM.
